Reference: PubChem BioAssay AID1919000 (Molecular Pharmacology Branch, DTP, NCI, 2023)

Test system: 653999-131-R-J2-PDC complex spheroids, growth % test/control
Assay: Anticancer human tumor 653999-131-R-J2-PDC patient-derived lung adenocarcinoma cell line growth inhibition [AhR]
Settings: for IC50: curve of first compound; for viability, T/C: stronger effect = lower value
Description: Multicellular complex tumor spheroid response to aryl hydrocarbon receptor antagonists in combination with a variety of drugs and investigational agents in selected tumor cell lines
The current study was undertaken to assess response to aryl hydrocarbon receptor antagonists in combination with standard-of-care drugs and investigational agents in solid tumor complex spheroid models. Complex spheroids include a stromal component modeled by human endothelial cells (HUVEC) and fibroblasts modeled by human mesenchymal stem cells (MSCs). The concentration ranges selected for each drug and investigational agent were based upon clinically achievable concentrations if the clinical Cmax of the agent was known.
Compounds. The drugs and investigational agents: BAY 2416964 (NSC825713), GNF351 (NSC835774), CH-223191 (NSC835775), CPI-455 (NSC825282), aza-TdCyd (NSC777586), decitabine (NSC127716), belinostat (NSC758774), entinostat (NSC756642), pevonedistat (NSC761192), tazemetostat (NSC777109), talazoparib (NSC765396), olaparib (NSC753686), selinexor (NSC780203), nedisertib (M3814, NSC802822), bortezomib (NSC756655), venetoclax (NSC766270), doxorubicin (NSC123127), elimusertib (BAY189344, NSC800525), ceralasertib (AZD6738, NSC777638), TAK-243 (NSC785004), alisertib (NSC759677), etoposide (NSC141540), topotecan (NSC609699), eribulin (NSC707389), gemcitabine (NSC613327), carboplatin (NSC241240), cisplatin (NSC119875), and SN-38 (NSC673596) were obtained from the National Cancer Institute (NCI) Developmental Therapeutics Program Chemical Repository (32). The FDA-approved anticancer drug set is available from the Developmental Therapeutics Program at https://dtp.cancer.gov/organization/dscb/obtaining/available plates.htm. […] The stock solutions were prepared in dimethyl sulfoxide (DMSO, Sigma-Aldrich, St. Louis, MO, cat. D2650), except for the platinum compounds which were prepared in saline (Quality Biological, Gaithersburg, MD, cat. 114-055-101), at 800-fold the tested concentration and stored at -70 degrees C prior to their use. All drugs and investigational agents were tested over a range starting from a high concentration at or near the clinical Cmax and decreasing in half-log increments. If the clinical Cmax for an agent had not been determined, the highest concentration tested was 10 microM (Table 1).
Cell Culture. All cells were maintained in an incubator at 37 degrees C and 5% CO2 with 95% humidity. The PDC lines were cultured according to standard operating procedures established by the NCI PDMR (https://pdmr.cancer.gov). Briefly, all PDCs were thawed and cultured in Matrigel-coated flasks prepared with a working solution of 1X Ham's F-12 nutrient mix, without supplementation (Invitrogen, Waltham, MA, cat. 11765054), 100 U/mL penicillin-streptomycin (Invitrogen, cat. 15140122), and 2.5% Matrigel (Corning Inc., Corning, NY, cat. 354248) for the first three passages. All PDCs were cultured in complete DMEM/F-12 media containing advanced DMEM/F-12 (Invitrogen, cat. 12634028), 4.9% defined fetal bovine serum, heat inactivated (HyClone Laboratories Inc., Logan, UT, cat. SH30070.03HI), 389 ng/mL hydrocortisone (Sigma-Aldrich, cat. H4001), 9.7 ng/mL human EGF recombinant protein (Invitrogen, cat. PHG0313), 23.4 microg/mL adenine (Sigma-Aldrich, cat. A2786), 97.3 U/mL penicillin-streptomycin (Invitrogen, cat. 15140122), 1.9 mM L-glutamine (Invitrogen, cat. 25030081), and 9.7 microM Y-27632 dihydrochloride (Tocris Bioscience, Bristol, United Kingdom, cat. 1254). The PDCs were cultured in complete DMEM/F12 media without 10 microM Y-27632 dihydrochloride for at least two passages prior to the screen. The established cell lines NCI-H1341 and […] were cultured in DMEM/F-12, HEPES (Invitrogen, cat. 11330032), 5% defined fetal bovine serum (HyClone Laboratories Inc., cat. SH30070.03), ITS premix universal culture supplement [insulin (5 microg/mL), transferrin (5 microg/mL), and selenious acid (5 ng/mL)] […]

[1] = second compound 0.1 µM, first compound 0.0316 µM
[2] = second compound 0.1 µM, first compound 0.1 µM
[3] = second compound 0.1 µM, first compound 0.316 µM
[4] = second compound 0.1 µM, first compound 1 µM
[5] = second compound 0.1 µM, first compound 3.16 µM
[6] = second compound 0.1 µM, first compound 10 µM
[7] = second compound 0.316 µM, first compound 0.0316 µM
[8] = second compound 0.316 µM, first compound 0.1 µM
[9] = second compound 0.316 µM, first compound 0.316 µM
[10] = second compound 0.316 µM, first compound 1 µM
[11] = second compound 0.316 µM, first compound 3.16 µM
[12] = second compound 0.316 µM, first compound 10 µM
[13] = second compound 1 µM, first compound 0.0316 µM
[14] = second compound 1 µM, first compound 0.1 µM
[15] = second compound 1 µM, first compound 0.316 µM
[16] = second compound 1 µM, first compound 1 µM
[17] = second compound 1 µM, first compound 3.16 µM
[18] = second compound 1 µM, first compound 10 µM
[19] = second compound 3.16 µM, first compound 0.0316 µM
[20] = second compound 3.16 µM, first compound 0.1 µM
[21] = second compound 3.16 µM, first compound 0.316 µM
[22] = second compound 3.16 µM, first compound 1 µM
[23] = second compound 3.16 µM, first compound 3.16 µM
[24] = second compound 3.16 µM, first compound 10 µM
[25] = second compound 10 µM, first compound 0.0316 µM
[26] = second compound 10 µM, first compound 0.1 µM
[27] = second compound 10 µM, first compound 0.316 µM
[28] = second compound 10 µM, first compound 1 µM
[29] = second compound 10 µM, first compound 3.16 µM
[30] = second compound 10 µM, first compound 10 µM
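Note: spheroids exposed to agents for seven days.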

IC50 (second compound 0.1 µM)	IC50 (second compound 0.316 µM)	IC50 (second compound 1 µM)	IC50 (second compound 3.16 µM)	IC50 (second compound 10 µM)	SMILES	viability, T/C [1]	viability, T/C [2]	viability, T/C [3]	viability, T/C [4]	viability, T/C [5]	viability, T/C [6]	viability, T/C [7]	viability, T/C [8]	viability, T/C [9]	viability, T/C [13]	viability, T/C [14]	viability, T/C [19]	viability, T/C [20]	viability, T/C [25]	viability, T/C [26]	further results
1270 nM	894 nM	944 nM	823 nM	846 nM	COc1cc(C2c3cc4c(cc3C(OC3OC5COC(C)OC5C(O)C3O)C3COC(=O)C23)OCO4)cc(OC)c1O (stereo not given) + CC(CO)NC(=O)c1cc(-c2ccc(Cl)cc2)nn(-c2cnn(C)c2)c1=O	87.5%	79.2%	73.9%	51.9%	37.8%	28.9%	82.3%	85.8%	63.5%	86.5%	80.2%	79.4%	80.9%	83.2%	83%	viability, T/C [10]: 48.4%; viability, T/C [11]: 36.5%; viability, T/C [12]: 26.6%; viability, T/C [15]: 77.2%; viability, T/C [16]: 48%; viability, T/C [17]: 34.7%; viability, T/C [18]: 30.2%; viability, T/C [21]: 72.5%; viability, T/C [22]: 44.1%; viability, T/C [23]: 42.8%; viability, T/C [24]: 28.8%; viability, T/C [27]: 62.6%; viability, T/C [28]: 49.4%; viability, T/C [29]: 31.6%; viability, T/C [30]: 25.6%
> 100 nM	> 100 nM	> 100 nM	> 100 nM	> 100 nM	Cn1ncnc1C1c2n[nH]c(=O)c3cc(F)cc(c23)NC1c1ccc(F)cc1 (stereo not given) + CC(CO)NC(=O)c1cc(-c2ccc(Cl)cc2)nn(-c2cnn(C)c2)c1=O	102%	91.9%					87.2%	102%		95.5%	96%	97.2%	100%	94.8%	93.2%	viability, T/C (second compound 0.1 µM, first compound 0.000316 µM): 104%; viability, T/C (second compound 0.1 µM, first compound 0.001 µM): 99.5%; viability, T/C (second compound 0.1 µM, first compound 0.00316 µM): 109%; viability, T/C (second compound 0.1 µM, first compound 0.01 µM): 101%; viability, T/C (second compound 0.316 µM, first compound 0.000316 µM): 111%; viability, T/C (second compound 0.316 µM, first compound 0.001 µM): 98.8%; viability, T/C (second compound 0.316 µM, first compound 0.00316 µM): 97.1%; viability, T/C (second compound 0.316 µM, first compound 0.01 µM): 96.3%; viability, T/C (second compound 1 µM, first compound 0.000316 µM): 105%; viability, T/C (second compound 1 µM, first compound 0.001 µM): 103%; viability, T/C (second compound 1 µM, first compound 0.00316 µM): 102%; viability, T/C (second compound 1 µM, first compound 0.01 µM): 106%; viability, T/C (second compound 3.16 µM, first compound 0.000316 µM): 99.2%; viability, T/C (second compound 3.16 µM, first compound 0.001 µM): 107%; viability, T/C (second compound 3.16 µM, first compound 0.00316 µM): 114%; viability, T/C (second compound 3.16 µM, first compound 0.01 µM): 102%; viability, T/C (second compound 10 µM, first compound 0.000316 µM): 106%; viability, T/C (second compound 10 µM, first compound 0.001 µM): 105%; viability, T/C (second compound 10 µM, first compound 0.00316 µM): 103%; viability, T/C (second compound 10 µM, first compound 0.01 µM): 97.1%
> 10000 nM	> 10000 nM	> 10000 nM	> 10000 nM	> 10000 nM	O=C(c1cc(Cc2n[nH]c(=O)c3ccccc23)ccc1F)N1CCN(C(=O)C2CC2)CC1 + Cc1ccccc1N=Nc1ccc(NC(=O)c2ccnn2C)c(C)c1	106%	101%	91%	92.7%	88.4%	77.6%	96.1%	101%	95.5%	94%	104%	95.1%	94.9%	89.8%	88.3%	viability, T/C [10]: 89.3%; viability, T/C [11]: 89.6%; viability, T/C [12]: 84.3%; viability, T/C [15]: 94.8%; viability, T/C [16]: 84.2%; viability, T/C [17]: 91.8%; viability, T/C [18]: 82%; viability, T/C [21]: 91.5%; viability, T/C [22]: 87.1%; viability, T/C [23]: 85%; viability, T/C [24]: 76.2%; viability, T/C [27]: 87%; viability, T/C [28]: 82.3%; viability, T/C [29]: 84.4%; viability, T/C [30]: 72.8%
